# Source: US10676514B2, “CDCA1-derived peptide and vaccine containing same” (ONCOTHERAPY SCIENCE, INC., priority 2014, dated 2020)
# Entries after “also recorded” stand apart in the source; their conditions may differ.
# Key:
# Type in all cases: cell-based, human
# [1] = system: peptide-pulsed C1R-A33 cells; assay: IFN-gamma ELISPOT assay of peptide-induced CTLs (HLA-A*3303); settings: CTLs induced from HLA-A*3303-positive donors, peptide-pulsed C1R-A33 vs control
# Text: (§1) Monocyte-derived dendritic cells (DCs) were used as the antigen-presenting cell to induce a cytotoxic T lymphocyte (CTL) response against peptides presented on human leukocyte antigens (HLAs). As described in the other sections, DCs were generated in vitro (Nakahara S et al., Cancer Res 2003, 63(14): 4112-8). Specifically, peripheral-blood mononuclear cells isolated from healthy volunteers (HLA-A*3303-positive) with the Ficoll-Paque plus solution (Pharmacia) were separated by attaching to plastic tissue culture dishes (Becton Dickinson) and concentrated as a monocyte fraction. The monocyte-concentrated population was cultured in the presence of 1000 IU/ml granulocyte macrophage colony-stimulating factor (R&D System) and 1000 IU/ml interleukin(IL)-4 (R&D System) in an AIM-V medium (Invitrogen) containing 2% heat-inactivated autologous serum (AS). After seven days of culturing, the cytokine-induced DCs were pulsed with 20 micro-g/ml each of the synthesized peptides in an AIM-V medium at 37 degrees C. for three hours in the presence of 3 micro-g/ml beta 2-microglobulin. The generated cells appeared to express on their cell surface DC-associated molecules such as CD80, CD83, CD86 and HLA class II (data not shown). Next, these peptide-pulsed DCs were inactivated by X-ray irradiation (20 Gy), and mixed in a 1:20 ratio with autologous CD8^+ T cells obtained by positive selection using the CD8 Positive Isolation Kit (Dynal). These culture products were seeded in a 48-well plate (Corning). Each well was made to contain 1.5×10^4 peptide-pulsed DCs, 3×10^5 CD8^+ T cells and 10 ng/ml IL-7 (R&D System) in 0.5 ml of the AIM-V/2% AS medium. Three days later, these culture products were added with a final concentration of 20 IU/ml IL-2 (CHIRON). On day 7 and day 14, T cells were further stimulated with peptide-pulsed autologous DCs. The DCs were prepared every time by the same method as above. On day 21, after the third peptide stimulation, CTLs were examined against the peptide-pulsed CIR-A33 cell by a human interferon (IFN)-gamma enzyme-linked immunospot (ELISPOT) assay (Tanaka H et al., Br J Cancer 2001, 84(1): 94-9; Umano Y et al., Br J Cancer 2001, 84(8): 1052-7; Uchida N et al., Clin Cancer Res 2004, 10(24): 8577-86; Suda T et al., Cancer Sci 2006, 97(5): 411-9; Watanabe T et al., Cancer Sci 2005, 96(8): 498-506).
# (§2) Specifically, peptide-pulsed C1R-A33 (1×10^4 cells/well) was prepared as the stimulator cell. The induced CTLs, i.e., CTL lines and CTL clones, were used as the responder cell. The IFN-gamma ELISPOT assay and IFN-gamma ELISA were performed according to the manufacturer's manual.
# peptide-pulsed C1R-A33 = assay: IFN-gamma ELISA of CTL lines and CTL clones (HLA-A*3303); settings: for IFN-gamma production of CTL lines: peptide-pulsed vs non-pulsed target cells, HLA-A*3303
# Description: (§3) CTLs were propagated in culture using methods similar to those disclosed by Riddell et al. (Walter E A et al., N Engl J Med 1995, 333(16): 1038-44; Riddell S R et al., Nat Med 1996, 2(2): 216-23). The CTLs were co-cultured in a total of 25 ml AIM-V medium containing 5% AS (AIM-V/5% AS) and 40 ng/ml anti-CD3 antibody with two types of Mitomycin C-treated human B lymphoblastoid cell lines at 5×10^6 cells/flask. One day after beginning of the culturing, 120 IU/ml IL-2 was added to the culture. On days 5, 8 and 11, a fresh AIM-V/5% AS medium containing 30 IU/ml IL-2 was added to the culture (Tanaka H et al., Br J Cancer 2001, 84(1): 94-9; Umano Y et al., Br J Cancer 2001, 84(8): 1052-7; Uchida N et al., Clin Cancer Res 2004, 10(24): 8577-86; Suda T et al., Cancer Sci 2006, 97(5): 411-9; Watanabe T et al., Cancer Sci 2005, 96(8): 498-506).
# (§4) Dilution of CTLs was carried out to make 0.3, 1 and 3 cells/well in 96 round-bottomed microtiter plates (Nalge Nunc International). The CTLs were co-cultured with two types of Mitomycin C-treated human B lymphoblastoid cell lines at 1×10^4 cells/well in a total of 150 micro-l/well AIM-V/5% AS medium with 30 ng/ml anti-CD3 antibody and 125 IU/ml IL-2. Ten days later, IL-2 was added to the medium at 50 micro-l/well to reach a final concentration of 125 IU/ml. On day 14, the CTL activity was tested, and the CTL clones were propagated using the same method as described above (Uchida N et al., Clin Cancer Res 2004, 10(24): 8577-86; Suda T et al., Cancer Sci 2006, 97(5): 411-9; Watanabe T et al., Cancer Sci 2005, 96(8): 498-506).
# as §2
# peptide-pulsed C1R-A11 = assay: IFN-gamma ELISA of CTL lines and CTL clones (HLA-A*1101); settings: for IFN-gamma production of CTL lines: peptide-pulsed vs non-pulsed target cells, HLA-A*1101
# Description: as §3, §4
# (§5) Specifically, peptide-pulsed C1R-A11 (1×10^4 cells/well) was prepared as the stimulator cell. The induced CTLs, i.e., CTL lines and CTL clones, were used as the responder cell. The IFN-gamma ELISPOT assay and IFN-gamma ELISA were performed according to the manufacturer's manual.
# [2] = system: peptide-pulsed C1R-A11 cells; assay: IFN-gamma ELISPOT assay of peptide-induced CTLs (HLA-A*1101); settings: CTLs induced from HLA-A*1101-positive donors, peptide-pulsed C1R-A11 vs control
# Text: as §1, with “(HLA-A*1101-positive)” for “(HLA-A*3303-positive)”, “C1R-A11 cells” for “CIR-A33 cell”
# as §5
Sequence,peptide-specific CTL activity (IFN-gamma production) [1],IFN-gamma production of CTL lines (peptide-pulsed C1R-A33),other results
DILCPKAKR (a peptide derived from CDCA1) [SEQ ID NO: 60],potent IFN-gamma production,–,–
DTVQKLKNAR (a peptide derived from CDCA1) [SEQ ID NO: 69],potent IFN-gamma production,potent IFN-gamma production,–
ETADILCPK (a peptide derived from CDCA1) [SEQ ID NO: 5],potent IFN-gamma production,–,"IFN-gamma production of CTL clones (peptide-pulsed C1R-A11; CTL clones by limiting dilution, peptide-pulsed C1R-A11, listed as CDCA1-A11-9-105): Potent IFN-gamma production; IFN-gamma production of CTL lines (peptide-pulsed C1R-A11): potent IFN-gamma production; peptide-specific CTL activity (IFN-gamma production) ([2]; listed as CDCA1-A11-9-105): potent IFN-gamma production; also recorded: significant specific CTL activity"
GIINFIHFR (a peptide derived from CDCA1) [SEQ ID NO: 3],potent IFN-gamma production,potent IFN-gamma production,"IFN-gamma production of CTL lines (peptide-pulsed C1R-A11): potent IFN-gamma production; IFN-gamma production of CTL clones (peptide-pulsed C1R-A33; CTL clones by limiting dilution, peptide-pulsed C1R-A33, listed as CDCA1-A33-9-123): Potent IFN-gamma production; peptide-specific CTL activity (IFN-gamma production) ([2]; listed as CDCA1-A11-9-123): potent IFN-gamma production; also recorded: significant specific CTL activity"
NVAEIVIHIR (a peptide derived from CDCA1) [SEQ ID NO: 67],potent IFN-gamma production,potent IFN-gamma production,–
SGIINFIHFR (a peptide derived from CDCA1) [SEQ ID NO: 68],–,–,peptide-specific CTL activity (IFN-gamma production) ([1]; listed as CDCA1-A33-10-122): no specific IFN-gamma production; also recorded: specific IFN-gamma production was not observed
TVQKLKNAR (a peptide derived from CDCA1) [SEQ ID NO: 28],potent IFN-gamma production,–,–
